Some test systems named below: 786-0 renal; A498 renal; A549 NSCLC; BT-549 breast; CCRF-CEM leukemia; COLO 205 colon; DU-145 prostate; HL-60(TB) leukemia; HOP-62 NSCLC; HS 578T breast; IGROV1 ovarian; K-562 leukemia; RXF 393 renal; SF-295 CNS; SK-MEL-28 melanoma; SN12C renal; U251 CNS; UACC-257 melanoma; OVCAR-4 ovarian.
What all share (assay): NCI anticancer screen, dose series, 48 h

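Where inhibition never reached the appropriate level, the endpoint shown equals the highest concentration tested. Otherwise, values were interpolated linearly from a five-concentration, 48-hour dose response in 96-well plates. At the TGI there is no net growth.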

This passage reports TGI results from PubChem BioAssay (NCI).

For the compound `O=C1C(C(c2ccccc2)N2CCOCC2)=C(O)C(c2ccccc2)N1c1ccccc1` (stereo not drawn), the TGI in the experiment with 786-0 renal, with A498 renal, in the experiment on A549 NSCLC, with BT-549 breast, in the experiment on CCRF-CEM leukemia and in the experiment on COLO 205 colon was above 10 µM in each case. Moreover, the TGI with DU-145 prostate, in the experiment with HL-60(TB) leukemia, in the experiment with HOP-62 NSCLC, in the experiment with HS 578T breast, in the experiment with IGROV1 ovarian and in the experiment on K-562 leukemia was above 10 µM throughout. The TGI in the experiment with RXF 393 renal, in the experiment on SF-295 CNS, in the experiment with SK-MEL-28 melanoma, with SN12C renal, in the experiment with U251 CNS and in the experiment on UACC-257 melanoma was above 10 µM in each case.
For the compound `CC(=O)OC(C)c1cc2c(s1)C(=O)c1scc(C(C)OC(C)=O)c1C2=O` (stereo not drawn), the TGI in the experiment on 786-0 renal is 0.461 µM; in the experiment with A498 renal it was 1.26 µM; in the experiment with A549 NSCLC it was 4.06 µM; with BT-549 breast, 0.426 µM; in the experiment on COLO 205 colon it was 1 µM; with DU-145 prostate it was 0.317 µM. Moreover, the TGI in the experiment with HL-60(TB) leukemia was above 100 µM; with HOP-62 NSCLC it was 0.44 µM; in the experiment with HS 578T breast, 1.41 µM; in the experiment with IGROV1 ovarian, 2.04 µM; in the experiment on K-562 leukemia, above 100 µM; in the experiment with OVCAR-4 ovarian, 0.583 µM. For the same compound, the TGI in the experiment on RXF 393 renal turned out to be 1.31 µM; with SF-295 CNS, 0.323 µM; with SK-MEL-28 melanoma, 0.378 µM; with U251 CNS, 1.66 µM; in the experiment with UACC-257 melanoma, 0.463 µM.
As for `O=C(CC(C(=O)c1ccco1)c1cccs1)c1cccs1` (stereo not drawn), the TGI in the experiment on 786-0 renal, with A498 renal, with A549 NSCLC, with BT-549 breast, in the experiment on COLO 205 colon and in the experiment on DU-145 prostate was above 100 µM in each case. For the same compound, the TGI in the experiment on HL-60(TB) leukemia was 60.3 µM; with HOP-62 NSCLC it was above 100 µM; with HS 578T breast, above 100 µM; in the experiment with IGROV1 ovarian it was above 100 µM; with OVCAR-4 ovarian, above 100 µM; in the experiment with RXF 393 renal, above 100 µM. Moreover, the TGI with SF-295 CNS, in the experiment on SK-MEL-28 melanoma, with SN12C renal, in the experiment with U251 CNS and in the experiment on UACC-257 melanoma was above 100 µM each time.
Regarding `O=c1oc2nc(-c3ccccc3)cc(C(F)(F)F)c2n1Cc1ccccc1`, the TGI is above 100 µM with 786-0 renal; 9.48 µM in the experiment with A498 renal; above 100 µM in the experiment on A549 NSCLC; above 100 µM with BT-549 breast; above 26.1 µM in the experiment with CCRF-CEM leukemia; above 100 µM with COLO 205 colon. Besides, the TGI was above 100 µM in the experiment with DU-145 prostate; above 100 µM in the experiment with HOP-62 NSCLC; above 75.3 µM in the experiment on HS 578T breast; above 43.5 µM in the experiment on IGROV1 ovarian; above 100 µM in the experiment on K-562 leukemia; above 100 µM in the experiment with OVCAR-4 ovarian. Besides, the TGI in the experiment with RXF 393 renal was above 30.3 µM; with SF-295 CNS, above 100 µM; with SK-MEL-28 melanoma, above 100 µM; in the experiment on SN12C renal it was above 100 µM; in the experiment on U251 CNS, above 100 µM; in the experiment with UACC-257 melanoma, above 100 µM.
With `O=[As](O)(O)c1ccc(N=Nc2ccc([As](=O)(O)O)cc2)cc1`, the TGI with 786-0 renal, in the experiment on A498 renal, in the experiment on A549 NSCLC, with BT-549 breast, in the experiment with DU-145 prostate and with HL-60(TB) leukemia was above 100 µM each time. Also, the TGI in the experiment with HOP-62 NSCLC, in the experiment on HS 578T breast, with IGROV1 ovarian, in the experiment with K-562 leukemia, in the experiment on OVCAR-4 ovarian and in the experiment on RXF 393 renal was above 100 µM each time. In addition, the TGI in the experiment with SF-295 CNS, in the experiment with SK-MEL-28 melanoma, in the experiment on SN12C renal, in the experiment with U251 CNS and in the experiment with UACC-257 melanoma was above 100 µM throughout.
On to `O=C1C(Cl)=C(N2C(=O)CCCC2=O)C(=O)c2ccccc21`, for which the TGI in the experiment on 786-0 renal came out at 33 µM; with A498 renal, 33.4 µM; in the experiment with A549 NSCLC, 54.7 µM; in the experiment with BT-549 breast, 36.2 µM; in the experiment with CCRF-CEM leukemia, 23.3 µM; with COLO 205 colon it was 19.1 µM. In addition, the TGI with DU-145 prostate was 30.2 µM; in the experiment on HL-60(TB) leukemia it was 4.42 µM; with HOP-62 NSCLC, above 100 µM; in the experiment with HS 578T breast, above 100 µM; with IGROV1 ovarian it was 30.1 µM; in the experiment on K-562 leukemia, 6.54 µM. Further, the TGI is 31.9 µM in the experiment with RXF 393 renal; above 100 µM in the experiment on SF-295 CNS; 33.4 µM in the experiment on SK-MEL-28 melanoma; 46.2 µM in the experiment with SN12C renal; 66.1 µM with U251 CNS; 38.7 µM in the experiment with UACC-257 melanoma.
On to `C=CCCCC1SC2=C(CC)CCCN2C1=O` (stereo not drawn), for which the TGI in the experiment on 786-0 renal, in the experiment with A498 renal, with A549 NSCLC, with BT-549 breast, in the experiment on COLO 205 colon and in the experiment with DU-145 prostate was above 100 µM throughout. Further, the TGI in the experiment with HL-60(TB) leukemia, with HOP-62 NSCLC, in the experiment on HS 578T breast, in the experiment with IGROV1 ovarian, in the experiment on K-562 leukemia and in the experiment with OVCAR-4 ovarian was above 100 µM in each case. Further, the TGI in the experiment on RXF 393 renal is above 100 µM; with SF-295 CNS, above 100 µM; in the experiment with SK-MEL-28 melanoma, above 100 µM; in the experiment on SN12C renal, above 100 µM; in the experiment with U251 CNS it was above 100 µM; with UACC-257 melanoma, 63.1 µM.
